According to patent US7371864B2, “Crystalline forms of a factor Xa inhibitor” (Bristol-Myers Squibb Company, priority 2004, dated 2008):

What was measured:
[1] = Moisture sorption isotherms (VTI SGA-100 Symmetric Vapor Analyzer); assay type: physicochemical; settings: 25° C., 4-95% RH
Experimental: Moisture sorption isotherms for N-1 were collected in a VTI SGA-100 Symmetric Vapor Analyzer using about 10 mg sample. The sample was dried at 60° C. until the loss rate of 0.0005 wt %/min was obtained for 10 minutes. The sample was tested at 25° C. and 4, 5, 15, 25, 35, 45, 50, 65, 75, 85, and 95% RH. Equilibration at each RH was reached when the rate of 0.0003 wt %/min for 35 minutes or a maximum of 600 minutes was achieved.

[2] = Relative thermodynamic stability of crystalline forms; assay type: physicochemical

hygroscopicity from moisture sorption isotherms [1]: essentially non-hygroscopic | stability relative to Form N-3 (monotropic relationship) ([2]; all temperatures, inferred from Form N-3 melting ˜40° C. lower than Form N-1): more stable at all temperatures | thermodynamic stability relative to other crystalline forms ([2]; room temperature): thermodynamically more stable form
SMILES: COc1ccc(-n2nc(C(C)(C)O)c3c2C(=O)N(c2ccc(-n4ccccc4=O)cc2)CC3)cc1 [Form N-1, 3-(1-hydroxy-1-methyl-ethyl)-1-(4-methoxy-phenyl)-6-[4-(2-oxo-2H-pyridin-1-yl)-phenyl]-1,4,5,6-tetrahydro-pyrazolo[3,4-c]pyridin-7-one]
